In patent US8822517B2, “Arylosulfonamides for the treatment of CNS diseases” (Adamed SP. Z O.O., priority 2010, dated 2014):

Experiments:
[1] = target: serotoninergic 5-HT6 receptor (Homo sapiens, UniProt P50406); assay: Binding assay 5-HT6 (h), [3H]LSD, CHO cells; set-up: expressed in transfected cells; host or cells: CHO cells; settings: read-out: 5-HT6
Procedure, shortened: (§1)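 Test conc. 1×10^−6 M. Read-out by scintillation counting. Specific = total − nonspecific (excess cold ligand).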

dopaminergic D2 receptor = dopaminergic D2 receptor (Homo sapiens, UniProt P14416); assay: Binding assay D2S (h), [3H]methyl-spiperone, HEK-293 cells; set-up: expressed in transfected cells; host or cells: HEK-293 cells; settings: read-out: D2 [%]
Chain of dopaminergic D2 receptor (P14416 1-414 isoform P14416-2): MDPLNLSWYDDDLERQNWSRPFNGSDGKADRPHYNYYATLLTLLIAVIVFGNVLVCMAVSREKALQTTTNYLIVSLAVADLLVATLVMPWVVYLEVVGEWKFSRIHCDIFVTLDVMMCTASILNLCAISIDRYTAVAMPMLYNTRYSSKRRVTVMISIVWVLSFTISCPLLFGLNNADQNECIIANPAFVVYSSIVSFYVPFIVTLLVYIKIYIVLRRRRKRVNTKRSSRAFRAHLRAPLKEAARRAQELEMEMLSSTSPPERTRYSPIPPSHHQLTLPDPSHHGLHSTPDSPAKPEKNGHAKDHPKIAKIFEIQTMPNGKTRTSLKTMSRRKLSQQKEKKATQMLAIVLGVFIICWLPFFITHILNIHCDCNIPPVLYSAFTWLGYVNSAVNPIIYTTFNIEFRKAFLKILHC
Procedure, shortened: as §1

[2] = target: serotoninergic 5-HT7 receptor (Homo sapiens, UniProt P34969); assay: Binding assay 5-HT7 (h), [3H]LSD, CHO cells; set-up: expressed in transfected cells; host or cells: CHO cells; settings: read-out: 5-HT7
Chain of serotoninergic 5-HT7 receptor (P34969 whole entry): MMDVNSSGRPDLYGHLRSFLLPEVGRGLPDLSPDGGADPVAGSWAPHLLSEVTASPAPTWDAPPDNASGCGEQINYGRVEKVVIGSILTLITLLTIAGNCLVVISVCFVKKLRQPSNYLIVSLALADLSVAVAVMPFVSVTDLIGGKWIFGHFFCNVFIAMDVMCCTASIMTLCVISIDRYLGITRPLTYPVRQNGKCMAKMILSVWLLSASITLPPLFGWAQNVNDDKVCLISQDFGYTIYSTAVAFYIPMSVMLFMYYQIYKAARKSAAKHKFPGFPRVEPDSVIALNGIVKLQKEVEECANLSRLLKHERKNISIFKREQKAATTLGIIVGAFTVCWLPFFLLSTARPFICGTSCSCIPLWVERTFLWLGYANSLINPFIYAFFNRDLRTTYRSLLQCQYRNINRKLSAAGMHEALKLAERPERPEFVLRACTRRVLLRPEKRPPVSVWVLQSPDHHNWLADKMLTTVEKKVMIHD
Procedure, shortened: as §1

[3] = target: T1, serotonine transporter (SERT) receptor (Homo sapiens, UniProt P31645); assay: Binding assay SERT (h), [3H]imipramine, CHO cells; settings: read-out: SERT [%]
T1 construct: expressed in transfected cells; host or cells: CHO cells
T1 sequence (P31645 whole entry): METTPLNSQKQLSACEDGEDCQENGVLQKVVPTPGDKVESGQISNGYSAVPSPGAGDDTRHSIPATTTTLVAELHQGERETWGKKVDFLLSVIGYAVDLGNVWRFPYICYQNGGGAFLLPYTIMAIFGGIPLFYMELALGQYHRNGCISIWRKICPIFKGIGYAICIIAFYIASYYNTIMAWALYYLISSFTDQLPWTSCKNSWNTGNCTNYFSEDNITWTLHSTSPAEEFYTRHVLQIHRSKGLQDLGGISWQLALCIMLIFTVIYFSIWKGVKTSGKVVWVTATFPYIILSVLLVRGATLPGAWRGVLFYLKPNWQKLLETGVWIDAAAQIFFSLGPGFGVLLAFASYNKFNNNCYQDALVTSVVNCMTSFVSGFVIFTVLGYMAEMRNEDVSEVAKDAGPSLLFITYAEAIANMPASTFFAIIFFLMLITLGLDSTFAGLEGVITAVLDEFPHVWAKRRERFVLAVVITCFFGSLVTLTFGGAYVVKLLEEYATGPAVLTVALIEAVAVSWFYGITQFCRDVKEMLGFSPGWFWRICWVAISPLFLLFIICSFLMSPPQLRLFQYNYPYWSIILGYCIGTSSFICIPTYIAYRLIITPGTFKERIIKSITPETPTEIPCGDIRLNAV
Procedure, shortened: as §1

adrenergic α1 receptor = assay: Binding assay α1 (non-selective), [3H]prazosin, rat cerebral cortex; settings: percent inhibition of control specific binding; compounds tested at 1×10^−6 M
Procedure, shortened: as §1

[4] = target: T2, serotoninergic 5-HT1A receptor (Homo sapiens, UniProt P08908); assay: Binding assay 5-HT1A (h), [3H]8-OH-DPAT, HEK-293 cells; set-up: expressed in transfected cells; host or cells: HEK-293 cells; settings: read-out: 5-HT1A
T2 sequence (P08908 1-422): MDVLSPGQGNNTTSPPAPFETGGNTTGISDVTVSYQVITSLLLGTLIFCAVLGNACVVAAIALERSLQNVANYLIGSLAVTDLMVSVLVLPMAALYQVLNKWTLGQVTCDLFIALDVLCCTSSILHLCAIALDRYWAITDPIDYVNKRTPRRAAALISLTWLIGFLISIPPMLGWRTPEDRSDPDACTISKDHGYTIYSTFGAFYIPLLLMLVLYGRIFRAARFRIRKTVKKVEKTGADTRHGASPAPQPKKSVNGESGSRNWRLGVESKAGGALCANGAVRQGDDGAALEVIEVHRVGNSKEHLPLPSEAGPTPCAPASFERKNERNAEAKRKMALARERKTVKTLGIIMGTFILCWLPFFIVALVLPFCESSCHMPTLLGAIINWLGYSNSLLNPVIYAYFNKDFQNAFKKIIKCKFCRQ
Procedure, shortened: as §1

[5] = target: serotoninergic 5-HT2A receptor (Homo sapiens, UniProt P28223); assay: Binding assay 5-HT2A (h), [3H]ketanserin, HEK-293 cells; set-up: expressed in transfected cells; host or cells: HEK-293 cells; settings: read-out: 5-HT2A
Chain of serotoninergic 5-HT2A receptor (P28223 whole entry): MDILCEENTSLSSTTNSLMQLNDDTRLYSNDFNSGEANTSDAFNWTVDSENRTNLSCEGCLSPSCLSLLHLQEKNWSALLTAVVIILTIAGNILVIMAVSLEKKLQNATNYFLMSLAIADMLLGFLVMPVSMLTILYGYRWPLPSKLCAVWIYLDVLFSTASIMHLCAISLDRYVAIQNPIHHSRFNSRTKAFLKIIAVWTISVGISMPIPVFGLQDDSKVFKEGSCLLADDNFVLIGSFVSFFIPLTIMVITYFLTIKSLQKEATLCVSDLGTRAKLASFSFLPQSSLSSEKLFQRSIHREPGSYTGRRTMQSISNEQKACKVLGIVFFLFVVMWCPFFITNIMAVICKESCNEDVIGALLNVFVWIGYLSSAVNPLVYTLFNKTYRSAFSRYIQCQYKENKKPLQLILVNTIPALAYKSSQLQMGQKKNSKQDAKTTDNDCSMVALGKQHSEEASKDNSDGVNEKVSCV
Procedure, shortened: as §1

dopaminergic D3 receptor = dopaminergic D3 receptor (Homo sapiens, UniProt P35462); assay: Binding assay D3 (h), [3H]methyl-spiperone, CHO cells; set-up: expressed in transfected cells; host or cells: CHO cells; settings: read-out: D3 [%]
Chain of dopaminergic D3 receptor (P35462 whole entry): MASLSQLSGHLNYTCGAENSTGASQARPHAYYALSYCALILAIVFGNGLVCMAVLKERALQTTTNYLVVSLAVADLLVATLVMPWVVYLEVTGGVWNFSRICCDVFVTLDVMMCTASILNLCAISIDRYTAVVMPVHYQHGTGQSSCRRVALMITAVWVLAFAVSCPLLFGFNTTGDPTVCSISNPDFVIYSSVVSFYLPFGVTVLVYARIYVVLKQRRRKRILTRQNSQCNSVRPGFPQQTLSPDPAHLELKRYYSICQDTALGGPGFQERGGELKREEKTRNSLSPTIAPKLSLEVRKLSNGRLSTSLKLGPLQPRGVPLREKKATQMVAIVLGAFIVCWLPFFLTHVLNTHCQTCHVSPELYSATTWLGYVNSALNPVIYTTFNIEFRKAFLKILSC
Procedure, shortened: as §1

Chain of serotoninergic 5-HT6 receptor (P50406 whole entry): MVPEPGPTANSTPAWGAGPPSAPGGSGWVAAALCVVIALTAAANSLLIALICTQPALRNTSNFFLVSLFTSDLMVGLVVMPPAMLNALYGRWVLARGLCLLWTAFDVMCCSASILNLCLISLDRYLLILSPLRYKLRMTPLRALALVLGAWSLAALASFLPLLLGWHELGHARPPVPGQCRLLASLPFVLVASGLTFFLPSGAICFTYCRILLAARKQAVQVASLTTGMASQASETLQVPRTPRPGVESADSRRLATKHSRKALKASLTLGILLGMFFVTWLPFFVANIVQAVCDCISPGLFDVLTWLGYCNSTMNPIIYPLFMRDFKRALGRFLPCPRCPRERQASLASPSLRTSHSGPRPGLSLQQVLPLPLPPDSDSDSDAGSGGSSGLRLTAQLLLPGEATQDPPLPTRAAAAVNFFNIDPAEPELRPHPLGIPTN

Row | Structure (SMILES) | inhibition at 1 µM [1] [%] | inhibition at 1 µM (dopaminergic D2 receptor) [%] | inhibition at 1 µM [2] [%] | inhibition at 1 µM [3] [%] | α1 [%] (adrenergic α1 receptor) | inhibition at 1 µM [4] [%] | inhibition at 1 µM [5] [%] | inhibition at 1 µM (dopaminergic D3 receptor) [%]
1 | Cc1cc(S(=O)(=O)NCCCCN2CCC(c3noc4cc(F)ccc34)CC2)c(C)s1 [Compound 309, N-[4-[4-(6-Fluoro-1,2-benzoxazol-3-yl)piperidin-1-yl]butyl]-2,5-dimethyl-thiophene-3-sulphonamide] | 79 | 84 | 87 | -5 | 103 | 64 | 88 | 90
2 | Cn1ccc2c(S(=O)(=O)NCCCCN3CCC(c4noc5cc(F)ccc45)CC3)cccc21 [Compound 310, N-[4-[4-(6-Fluoro-1,2-benzoxazol-3-yl)piperidin-1-yl]butyl]-1-methyl-indole-4-sulphonamide] | 89 | 96 | 89 | 57 | 107 | 91 | 99 | 97
3 | Cn1ccc2ccc(S(=O)(=O)NCCCCN3CCC(c4noc5cc(F)ccc45)CC3)cc21 [Compound 311, N-[4-[4-(6-Fluoro-1,2-benzoxazol-3-yl)piperidin-1-yl]butyl]-1-methyl-indole-6-sulphonamide] | 99 | 105 | 95 | 34 | 107 | 49 | 105 | 101
4 | O=S(=O)(NCCCCN1CCC(c2noc3cc(F)ccc23)CC1)c1ccc2c(c1)CCO2 [Compound 317, N-[4-[4-(6-Fluoro-1,2-benzoxazol-3-yl)piperidin-1-yl]butyl]-2,3-dihydrobenzofuran-5-sulphonamide] | 78 | 105 | 89 | -17 | 99 | 45 | 98 | 97
5 | O=S(=O)(NCCCCN1CCC(c2noc3cc(F)ccc23)CC1)c1cccc2scnc12 [Compound 318, N-[4-[4-(6-Fluoro-1,2-benzoxazol-3-yl)piperidin-1-yl]butyl]-1,3-benzothiazole-4-sulphonamide] | 76 | 67 | 92 | 45 | 98 | 96 | 89 | 95
6 | O=S(=O)(NCCCCN1CCC(c2noc3cc(F)ccc23)CC1)c1ccc2cn[nH]c2c1 [Compound 319, N-[4-[4-(6-Fluoro-1,2-benzoxazol-3-yl)piperidin-1-yl]butyl]-1H-indazole-6-sulphonamide] | 87 | 109 | 90 | 8 | 94 | 55 | 88 | 90
7 | O=S(=O)(NCCCCN1CCC(c2noc3cc(F)ccc23)CC1)c1cnc2ccccn12 [Compound 322, N-[4-[4-(6-Fluoro-1,2-benzoxazol-3-yl)piperidin-1-yl]butyl]imidazo[1,2-a]pyridine-3-sulphonamide] | 62 | 96 | 95 | 16 | 103 | 43 | 94 | 93
8 | O=S(=O)(NCCCCN1CCC(c2noc3cc(F)ccc23)CC1)c1c[nH]c2ncccc12 [Compound 323, N-[4-[4-(6-Fluoro-1,2-benzoxazol-3-yl)piperidin-1-yl]butyl]-1H-pyrrolo[2,3-b]pyridine-3-sulphonamide] | 92 | 105 | 93 | 41 | 103 | 45 | 96 | 96
9 | O=C1Cc2cc(S(=O)(=O)NCCCCN3CCC(c4noc5cc(F)ccc45)CC3)ccc2N1 [Compound 324, N-[4-[4-(6-Fluoro-1,2-benzoxazol-3-yl)piperidin-1-yl]butyl]-2-oxo-indoline-5-sulphonamide] | 78 | 105 | 78 | 37 | 103 | 56 | 104 | 103
10 | O=S(=O)(NCCCN1CCC(c2noc3cc(F)ccc23)CC1)c1ccc(F)cc1 [Compound 326, 4-Fluoro-N-[3-[4-(6-fluoro-1,2-benzoxazol-3-yl)piperidin-1-yl]propyl]benzenesulphonamide] | 94 | 109 | 94 | 19 | 101 | 59 | 96 | 99
11 | O=S(=O)(NCCCN1CCC(c2noc3cc(F)ccc23)CC1)c1ccc(F)c(F)c1 [Compound 327, 3,4-Difluoro-N-[3-[4-(6-fluoro-1,2-benzoxazol-3-yl)piperidin-1-yl]propyl]benzenesulphonamide] | 99 | 89 | 86 | -1 | 109 | 67 | 91 | 97
12 | O=S(=O)(NCCCN1CCC(c2noc3cc(F)ccc23)CC1)c1ccc(Cl)c(Cl)c1 [Compound 329, 3,4-Dichloro-N-[3-[4-(6-fluoro-1,2-benzoxazol-3-yl)piperidin-1-yl]propyl]benzenesulphonamide] | 97 | 109 | 95 | -2 | 102 | 69 | 91 | 99
13 | COc1cccc(S(=O)(=O)NCCCN2CCC(c3noc4cc(F)ccc34)CC2)c1 [Compound 332, N-[3-[4-(6-Fluoro-1,2-benzoxazol-3-yl)piperidin-1-yl]propyl]-3-methoxybenzenesulphonamide] | 95 | 83 | 64 | 18 | 107 | 71 | 97 | 96
14 | CC(C)(C)c1ccc(S(=O)(=O)NCCCN2CCC(c3noc4cc(F)ccc34)CC2)cc1 [Compound 333, 4-tert-Butyl-N-[3-[4-(6-fluoro-1,2-benzoxazol-3-yl)piperidin-1-yl]propyl]benzenesulphonamide] | 93 | 92 | 92 | 5 | 106 | 42 | 99 | 89
15 | O=S(=O)(NCCCN1CCC(c2noc3cc(F)ccc23)CC1)c1ccc(C(F)(F)F)cc1 [Compound 334, N-[3-[4-(6-Fluoro-1,2-benzoxazol-3-yl)piperidin-1-yl]propyl]-4-(trifluoromethyl)-benzenesulphonamide] | 98 | 75 | 85 | 30 | 105 | 86 | 90 | 96
16 | O=S(=O)(NCCCN1CCC(c2noc3cc(F)ccc23)CC1)c1cccc(C(F)(F)F)c1 [Compound 335, N-[3-[4-(6-Fluoro-1,2-benzoxazol-3-yl)piperidin-1-yl]propyl]-3-(trifluoromethyl)-benzenesulphonamide] | 93 | 105 | 88 | -25 | 101 | 54 | 97 | 93
